Patent publication US20210115104A1, “AMYLIN ANALOGUES” (Zealand Pharma A/S, priority 2015, published 2021)
*1 amine or outer side, *2 acyl side, *3 side chain or, on linkers, in order; H or OH if unused. Where a SMILES comes first, the peptide text is derived from it. Bridges are numbered along the chain shown (N, C = ends). [ ]: non-standard residue; d: D form. The star is where a group is joined. C20 diacid = O=C(O)CCCCCCCCCCCCCCCCCCC(=O)*; γGlu = O=C(O)[C@H](CCC(=O)[*:2])N[*:1]; Hyp = O=C(O)[C@@H]1C[C@@H](O)CN1; NMeI = CC[C@H](C)[C@H](NC)C(=O)O; Sar = CNCC(=O)O

How the values were obtained:
[1] = Assessment of chemical stability (RP-HPLC normalized purity); format: physicochemical; settings: 7 days, 40° C., Table 1
Procedure, shortened: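 Peptides at 0.2 mg/ml in water adjusted to pH 4, 6, 7.5 or 9, incubated at 40° C for 7 days. Main-peak area-% by RP-HPLC (C8 ammonium formate or C18 TFA gradient, UV 220 nm), normalized to T=0 as 100.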

[2] = target: T1, human amylin receptor 3 (hAMYR3), hCTR2 co-expressed with hRAMP3 (Homo sapiens, UniProt O60896+P30988); test: hAMYR3 cAMP assay (AlphaScreen) in COS7 cells; format: cell-based; settings: cAMP induction, COS7 cells expressing hAMYR3; Table 1; read-out: hAMYR3 EC50
T1 construct: expressed in transfected cells
T1 sequence (P30988 25-474): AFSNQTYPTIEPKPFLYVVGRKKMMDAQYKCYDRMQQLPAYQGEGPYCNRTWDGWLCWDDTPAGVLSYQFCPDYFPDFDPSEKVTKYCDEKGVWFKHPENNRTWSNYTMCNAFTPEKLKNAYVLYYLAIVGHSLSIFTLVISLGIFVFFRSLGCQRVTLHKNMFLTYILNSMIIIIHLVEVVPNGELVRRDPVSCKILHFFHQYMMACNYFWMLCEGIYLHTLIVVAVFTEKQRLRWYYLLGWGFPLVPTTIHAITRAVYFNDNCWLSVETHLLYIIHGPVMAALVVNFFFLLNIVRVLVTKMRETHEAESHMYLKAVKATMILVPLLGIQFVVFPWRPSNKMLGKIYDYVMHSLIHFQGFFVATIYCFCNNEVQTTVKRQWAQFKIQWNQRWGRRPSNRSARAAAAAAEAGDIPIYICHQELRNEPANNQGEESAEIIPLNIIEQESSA
T1 sequence (O60896 24-148 partner): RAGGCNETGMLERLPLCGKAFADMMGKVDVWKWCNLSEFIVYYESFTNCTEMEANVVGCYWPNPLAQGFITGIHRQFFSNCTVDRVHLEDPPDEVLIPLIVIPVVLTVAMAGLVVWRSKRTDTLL
Procedure, shortened: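 Stable COS7 clone co-expressing hCTR2 and hRAMP3 was exposed to increasing peptide concentrations in Tyrode buffer (pH 7.4) with 100 µM IBMX and 0.1% casein for 15 min at 37 °C. Lysate cAMP was measured by AlphaScreen; EC50 came from 4-parameter logistic fitting.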

[3] = target: T2, human calcitonin receptor (hCTR2) (Homo sapiens, UniProt P30988); test: hCTR2 cAMP assay (AlphaScreen) in COS7 cells; format: cell-based; settings: cAMP induction, COS7 cells expressing hCTR2; Table 1; read-out: hCTR2 EC50
T2 construct: expressed in transfected cells
T2 sequence (P30988 25-474): T1 sequence (P30988 25-474)
Procedure, shortened: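 Stable hCTR2 clone in RAMP-naïve COS7 cells stimulated 15 min at 37 °C with increasing peptide concentrations in Tyrode buffer pH 7.4 containing IBMX and 0.1% casein. cAMP in lysates measured by AlphaScreen; EC50 from 4-parameter logistic fit.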

- Normalized purity after 7 days, 40° C., pH 4 ([1]; pH 4, 0.2 mg/ml): A (A = >90%)
- Normalized purity after 7 days, 40° C., pH 6 ([1]; pH 6, 0.2 mg/ml): A (A = >90%)
- Normalized purity after 7 days, 40° C., pH 7.5 ([1]; pH 7.5, 0.2 mg/ml): A (A = >90%)
- Normalized purity after 7 days, 40° C., pH 9 ([1]; pH 9, 0.2 mg/ml): B (B = 70-90%)
- EC50 [2]: 0.18 nM
- EC50 [3]: 0.11 nM
SMILES: CC[C@H](C)[C@@H](C(=O)N[C@@H](CC(C)C)C(=O)N[C@@H](CO)C(=O)N[C@@H](CO)C(=O)N[C@H](C(=O)N[C@@H](CCC(=O)O)C(=O)N[C@H](C(=O)NCC(=O)N[C@@H](CO)C(=O)NCC(=O)N[C@H](C(=O)N1C[C@H](O)C[C@H]1C(N)=O)[C@@H](C)O)C(C)C)[C@@H](C)O)N(C)C(=O)[C@H](C)NC(=O)CN(C)C(=O)[C@H](Cc1ccccc1)NC(=O)[C@H](CO)NC(=O)[C@H](CO)NC(=O)[C@H](CCCNC(=N)N)NC(=O)[C@H](CCC(N)=O)NC(=O)[C@H](CC(C)C)NC(=O)[C@H](Cc1ccccc1)NC(=O)[C@H](Cc1c[nH]cn1)NC(=O)[C@H](C)NC(=O)[C@H](CC(C)C)NC(=O)[C@H](CCCNC(=N)N)NC(=O)[C@H](CCC(N)=O)NC(=O)[C@@H](NC(=O)[C@H](C)NC(=O)[C@@H]1CSSC[C@H](NC(=O)[C@H](CCCNC(=N)N)NC(=O)CC[C@H](NC(=O)CCCCCCCCCCCCCCCCCCC(=O)O)C(=O)O)C(=O)N[C@@H](CC(N)=O)C(=O)N[C@@H]([C@@H](C)O)C(=O)N[C@@H](C)C(=O)N[C@@H]([C@@H](C)O)C(=O)N1)[C@@H](C)O [Compound 71, [19CD]-isoGlu-R-C( )-NTAT-C( )-ATQRLAHFLQRSSF-Gly(Me)-A-Ile(Me)-LSSTEVGSGT-Hyp-NH2] ({C20 diacid-γGlu}-RCNTATCATQRLAHFLQRSSF[Sar]A[NMeI]LSSTEVGSGT[Hyp]-NH2; disulfide 2-7)
